# Experimental data reported in BindingDB's records for doi:10.3109/14756366.2012.757603 (Sakarya University, 2014).
# Key:
# [1] = target: Carbonic anhydrase 1 (Homo sapiens, UniProt P00915); experiment: In Vitro Inhibition Assay
# Description: (§1) For the inhibition studies of sulfonamide, different concentrations of these compounds were added to the enzyme. Activity percentage values of CA for different concentrations of each sulfonamide were determined by regression analysis usingMicrosoft Office 2000 Excel (New York, NY). CA enzyme activity without a sulfonamide solution was accepted to be 100%.
# [2] = target: Carbonic anhydrase 2 (Homo sapiens, UniProt P00918); experiment: In Vitro Inhibition Assay
# Description: as §1
# Carbonic anhydrase 1, sequence (P00915 whole entry): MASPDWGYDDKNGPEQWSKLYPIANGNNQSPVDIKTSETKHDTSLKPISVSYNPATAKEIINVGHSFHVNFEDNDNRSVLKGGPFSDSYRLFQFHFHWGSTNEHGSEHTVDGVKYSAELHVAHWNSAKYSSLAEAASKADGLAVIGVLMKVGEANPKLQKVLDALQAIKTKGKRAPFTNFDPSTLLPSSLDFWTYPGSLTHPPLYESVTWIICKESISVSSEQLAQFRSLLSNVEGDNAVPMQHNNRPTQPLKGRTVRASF
Compound,IC50 [1],IC50 [2]
"CN1C(=O)C(=CNc2ccc(S(N)(=O)=O)cc2)C(=O)N(C)C1=O [4-((1,3-Dimethyl-2,4,6-trioxo-tetrahydropyrimidin-5(6H)-ylidene)methylamino)benzene-sulfonamide (2e)]",5.2 µM,2.52 µM
"NS(=O)(=O)c1ccc(NC=C2C(=O)c3ccccc3C2=O)cc1 [4-((1,3-Dioxo-1H-inden-2(3H)-ylidene)methylamino)benzene-sulfonamide (2g)]",3.19 µM,3.36 µM
"CC1(C)OC(=O)C(=CNc2ccc(S(N)(=O)=O)cc2)C(=O)O1 [4-((2,2-Dimethyl-4,6-dioxo-1,3-dioxan-5-ylidene)methylamino)benzene-sulfonamide (2c)]",6.56 µM,18.6 µM
"NS(=O)(=O)c1ccc(NC=C2C(=O)NC(=O)NC2=O)cc1 [4-((2,4,6-Trioxo-tetrahydropyrimidin-5(6H)-ylidene)methylamino)benzene-sulfonamide (2f)]",10.9 µM,9.92 µM
"NS(=O)(=O)c1ccc(NC=C2C(=O)CCC2=O)cc1 [4-((2,5-Dioxocyclopentylidene)methylamino)benzenesulfonamide (2h)]",4.8 µM,3.36 µM
"NS(=O)(=O)c1ccc(NC=C2C(=O)CCCC2=O)cc1 [4-((2,6-Dioxocyclohexylidene)methylamino)benzenesulfonamide (2a)]",4.25 µM,4.93 µM
"CC1(C)CC(=O)C(=CNc2ccc(S(N)(=O)=O)cc2)C(=O)C1 [4-((4,4-Dimethyl-2,6-dioxocyclohexylidene)methylamino)benzene-sulfonamide (2b)]",2.12 µM,6.41 µM
"NS(=O)(=O)c1ccc(NC=C2C(=O)CC(c3ccco3)CC2=O)cc1 (stereo unspecified) [4-((4-(Furan-2-yl)-2,6-dioxocyclohexylidene)methylamino)benzenesulfonamide (2d)]",8.61 µM,7.21 µM
